Reference: patent US10017501B2, “Benzimidazole derivatives as bromodomain inhibitors” (Gilead Sciences, Inc., priority 2013, dated 2018)

System: MT-4 cells
Assay: MT-4 proliferation assay
Assay type: cell-based, human
Conditions: Homo sapiens, MT4, 120 h; Table 1; 5 days, Cell Titer Glo; read-out: MT4 Assay (EC50)
Protocol: MT-4 Proliferation Assay:
Compounds were tested in a standardized high-throughput 384-well assay format. Each compound was serially diluted 3-fold in 100% DMSO in polypropylene 384-well plates using a Biomek FX Workstation, and 0.4 μL compound added to an assay plate containing 40 μL RPMI media. Compounds were arranged in a horizontal pattern, with 10 concentrations per compound, and 8 compounds added per plate. Due to low DMSO tolerability, the final DMSO concentration never exceeded 0.5% (v/v). Each assay plate contained 10 μM Puromycin and 0.5% DMSO in RPMI-1640 as positive and negative controls respectively. MT-4 cells (HTLV-1 transformed, human T lymphoblastoid cells, NIH Aids Reagent program) were added in volumes of 35 μL per well and 2,000 cells per well using a Biotek uFlow Workstation (Biotek, Winooski, Vt.), and the plates subsequently incubated for 5 days at 37° C. in an incubator set at 5% CO2 and 90% humidity.
After 5 days, 22 μL Cell Titer Glo (Promega) was added to the assay plates with a Biotek uFlow Workstation. Plates were subsequently placed on a Perkin Elmer Envision Plate Reader for 5 minutes before the luminescence signal was read.

| SMILES | EC50 |
| --- | --- |
| Cc1ccc2ncccc2c1-c1cc(-c2c(C)noc2C)cc2nc(C3CC3)n(C)c12 [Compound 1020-74, 4-(2-Cyclopropyl-1-methyl-7-(6-methylquinolin-5-yl)-1H-benzo[d]imidazol-5-yl)-3,5-dimethylisoxazole] | 15.3 nM |
| Cc1noc(C)c1-c1cc(/C=C/c2ccccc2)c2[nH]c(C3CC3)nc2c1 [Compound 1020-37, (E)-4-(2-cyclopropyl-4-styryl-1H-benzo[d]imidazol-6-yl)-3,5-dimethylisoxazole] | 518 nM |
| Cc1noc(C)c1-c1cc(S(=O)(=O)NC2CCCC2)c2nc(NCC(F)(F)F)[nH]c2c1 [Compound 1020-148, N-Cyclopentyl-6-(3,5-dimethylisoxazol-4-yl)-2-(2,2,2-trifluoroethylamino)-1H-benzo[d]imidazole-4-sulfonamide] | 495 nM |
| Cc1n[nH]c(C)c1-c1cc(-c2c(C)noc2C)cc2[nH]c(NCC3CC3)nc12 [Compound 1020-79, N-(Cyclopropylmethyl)-4-(3,5-dimethyl-1H-pyrazol-4-yl)-6-(3,5-dimethylisoxazol-4-yl)-1H-benzo[d]imidazol-2-amine] | 33.8 nM |
| Cc1ccnc(C)c1-c1cc(-c2c(C)noc2C)cc2nc(C3CC3)[nH]c12 [Compound 1020-57, 4-(2-Cyclopropyl-7-(2,4-dimethylpyridin-3-yl)-1H-benzo[d]imidazol-5-yl)-3,5-dimethylisoxazole] | 13.6 nM |
| Cc1ccc2ncccc2c1-c1cc(-c2c(C)noc2C)cc2[nH]c(C(O)CCO)nc12 (centres unmarked) [Compound 1020-89, 1-(6-(3,5-dimethylisoxazol-4-yl)-4-(6-methylquinolin-5-yl)-1H-benzo[d]imidazol-2-yl)propane-1,3-diol] | 104 nM |
| Cc1n[nH]c(C)c1-c1cc(-c2c(C)noc2C)cc2[nH]c(C3CCC3)nc12 [Compound 1020-75, 4-(2-Cyclobutyl-4-(3,5-dimethyl-1H-pyrazol-4-yl)-1H-benzo[d]imidazol-6-yl)-3,5-dimethylisoxazole] | 18.4 nM |
| Cc1noc(C)c1-c1cc(C(O)C2CCCC2)c2nc(C3CC3)[nH]c2c1 (centres unmarked) [Compound 1020-121, Cyclopentyl(2-cyclopropyl-6-(3,5-dimethylisoxazol-4-yl)-1H-benzo[d]imidazol-4-yl)methanol] | 42.8 nM |
| Cc1n[nH]c(C)c1-c1cc(-c2c(C)noc2C)cc2nc(C3CC3(F)F)[nH]c12 (centres unmarked) [Compound 1020-78, 4-(2-(2,2-Difluorocyclopropyl)-7-(3,5-dimethyl-1H-pyrazol-4-yl)-1H-benzo[d]imidazol-5-yl)-3,5-dimethylisoxazole] | 25.7 nM |
| Cc1ccc2ncccc2c1-c1cc(-c2c(C)noc2C)cc2[nH]c(-c3cnn(C)c3)nc12 [Compound 1020-88, 3,5-Dimethyl-4-(2-(1-methyl-1H-pyrazol-4-yl)-4-(6-methylquinolin-5-yl)-1H-benzo[d]imidazol-6-yl)isoxazole] | 45.2 nM |
| Cc1n[nH]c(C)c1-c1cc(-c2c(C)noc2C)cc2nc(C3CC3)n(C)c12 [Compound 1020-72, 4-(2-cyclopropyl-7-(3,5-dimethyl-1H-pyrazol-4-yl)-1-methyl-1H-benzo[d]imidazol-5-yl)-3,5-dimethylisoxazole] | 6.5 nM |
| CCC(O)(CC)c1cc(-c2c(C)noc2C)cc2c1nc(C1CC1)n2C [Compound 1020-132, 3-(2-Cyclopropyl-6-(3,5-dimethylisoxazol-4-yl)-1-methyl-1H-benzo[d]imidazol-4-yl)pentan-3-ol] | 544 nM |
| COc1nc2c(-c3c(C)ccc4ncccc34)cc(-c3c(C)noc3C)cc2[nH]1 [Compound 1020-90, 4-(2-methoxy-4-(6-methylquinolin-5-yl)-1H-benzo[d]imidazol-6-yl)-3,5-dimethylisoxazole] | 25 nM |
| Cc1noc(C)c1-c1cc(C(O)(c2ccccc2)c2ccccc2)c2nc(C3CC3)[nH]c2c1 [Compound 1020-102, (2-Cyclopropyl-6-(3,5-dimethylisoxazol-4-yl)-1H-benzo[d]imidazol-4-yl)diphenylmethanol] | 49.7 nM |
